The results in this text go back to patent US4005217A, “Treatment of helminth infections with substituted phenyl-thiourea derivatives” (May & Baker Limited, priority 1970, dated 1977).

SMILES strings stand for the structures. In brackets after ≈: the same amount, converted by molar mass. Structures can show the parent of a compound that is named as a salt. Where two headings read alike, the source gives them in different places.

Experiment [1] deals with Nippostrongylus brasiliensis. The experiment is described as follows: Test 1: activity against roundworms in rats, treatment 6 days after infection (patent infection), worm counts 48 hours after treatment. The format is in vivo. On the procedure: Test 1 - Rats were infected with 100 Nippostrongylus brasiliensis larvae each, by the subcutaneous route. After 6 days, when the infection was patent, the rats were randomised and alloted to groups of 10 animals each, ready for treatment. One group was used for each dose level of the test compound and, in each experiment, one group was left untreated as a control. All the rats were killed for post-mortem worm counts 48 hours after treatment. The activity, expressed in terms of the percentage reduction in mean worm load of the treated group compared with the untreated group, is shown in Table I.

For experiment [2], the system named is Nippostrongylus brasiliensis. The experiment is described as follows: Test 2: activity against roundworms in rats, treatment 24 hours after infection, worm counts 6 days after dosing. The format is in vivo. As for the experimental part: Test 2 -- Rats were infected with 100 Nippostrongylus brasiliensis larvae each, by the subcutaneous route. After 24 hours the rats were randomised and allotted to groups of 5 animals each, ready for treatment. Doses of the test compound were then administered to each group by the oral, subcutaneous and intraperitoneal routes respectively, one group of 10 animals being left untreated as a control. All the rats were killed for post-mortem worm counts 6 days after dosing. The activities, expressed in terms of the percentage reductions in mean worm load of the treated groups or damage to the worms compared with the untreated control group, are given below in Table I.

Experiment [3] has as its system Nippostrongylus brasiliensis eggs. Put plainly: In vitro activity against roundworms (egg hatching and larvae). The format is cell-based. Conditions: 96 h, tested at 100, 10, 1 and 0.1 μg/ml, inhibited or delayed hatching of eggs, or killed, retarded growth or reduced activity of larvae during 4 days, read-out: M.I.C. (minimum inhibitory concentration). On the procedure: Compounds of formula I were tested at concentrations of 100 μg/ml, 10 μg/ml, 1 μg/ml and 0.1 μg/ml in small glass containers. If the compound was not soluble in water, a volatile organic medium, e.g. acetone, chloroform, ethanol or methanol was used. An amount of material appropriate for each final concentration was measured and placed in duplicate test containers and if an organic solvent was used it was allowed to evaporate completely. Nippostrongylus brasiliensis eggs were recovered by saturated saline centrifugal flotation from the faeces of rats heavily infected with third stage larvae six days previously. They were washed several times in water and suspended in water in a suitable concentration. From 25-50 eggs were placed in each container and the final volume was made up by the addition of a very dilute aqueous suspension of mouse faeces which served as the growth medium. The minimum inhibitory concentrations of each compound (M.I.C.), shown in the following Table V was the minimum concentration in μg/ml total liquid volume at which it inhibited or delayed hatching of eggs, or at which it killed, retarded growth or reduced activity of larvae during the 4 days after beginning the test.

The mark [4] stands for this setting: Nippostrongylus brasiliensis, po, 48 h, Test 1, 1000 mg/kg oral, read-out: Percentage reduction in N.brasiliensis load.
The mark [5] stands for this setting: Nippostrongylus brasiliensis, 144 h, rats, Test 2, 1000 mg/kg oral, read-out: Percentage reduction in N.brasiliensis load.
[6] abbreviates: Nippostrongylus brasiliensis, ip, 144 h, rats, Test 2, 250 mg/kg intraperitoneal, read-out: Percentage reduction in N.brasiliensis load.
Setting [7] is: Nippostrongylus brasiliensis, sc, 144 h, rats, Test 2, 250 mg/kg subcutaneous, read-out: Percentage reduction in N.brasiliensis load.

For the compound `CCOC(=O)NC(=S)Nc1ccccc1NC(=O)C(C)N(C)C` (racemic) [1-ethoxycarbonyl-3[2-(1-dimethylaminoethylcarbonylamino)phenyl]thiourea], the inhibition in vivo at 1000 mg/kg in experiment [1] (setting [4]) worked out at 97%; in experiment [2] (setting [5]) it was 100%.
Consider `CCOCCOC(=O)NC(=S)Nc1ccccc1N` [1-(2-ethoxyethoxycarbonyl)-3-(2-aminophenyl)thiourea], for which the inhibition in vivo at 1000 mg/kg in experiment [2] (setting [5]) came to 90%. Also, the worm damage result in experiment [2] (rats, Test 2, 1000 mg/kg oral) was “worm damage”.
`CCCCOC(=O)NC(=S)Nc1ccccc1N` [1-butoxycarbonyl-3-(2-aminophenyl)thiourea]: the MIC in experiment [3] stood at 1 µg/mL (≈ 3.74 µM).
Consider `CCOC(=O)NC(=S)Nc1ccc(NC(=O)OC(C)C)cc1NC(C)=O` [1-ethoxycarbonyl-3-(2-acetamido-4-isopropoxycarbonylaminophenyl)thiourea], for which, in experiment [2] (setting [5]), the inhibition in vivo at 1000 mg/kg worked out at 62%.
`CCOC(=O)NC(=S)Nc1ccc(Cl)cc1N` [1-ethoxycarbonyl-3-(2-amino-4-chlorophenyl)thiourea]: the MIC in experiment [3] stood at 10 µg/mL (≈ 36.5 µM).
Regarding `CCCCc1ccc(NC(=S)NC(=O)OCC)c(N)c1` [1-ethoxycarbonyl-3-(2-amino-4-n-butylphenyl)-thiourea], the MIC in experiment [3] was found to be 1 µg/mL (≈ 3.39 µM).
Consider `CCCCN(CCCC)CC(=O)Nc1ccccc1NC(=S)NC(=O)OCC` [1-ethoxycarbonyl-3-(2-di-n-butylaminoacetamidophenyl)thiourea hydrochloride], for which the inhibition in vivo at 1000 mg/kg in experiment [2] (setting [5]) turned out to be 97%. For the same compound, the MIC in experiment [3] amounted to 0.1 µg/mL.
With `CCOC(=O)NC(=S)Nc1ccccc1NC(=O)CN(CC)CC` [1-ethoxycarbonyl-3-(2-diethylaminoacetamidophenyl)thiourea hydrochloride], the inhibition in vivo at 1000 mg/kg was 44% in experiment [1] (setting [4]) and 100% in experiment [2] (setting [5]). For the same compound, the inhibition in vivo at 250 mg/kg in experiment [2] (setting [6]) came to 99%; in experiment [2] (setting [7]), 95%. Besides, in experiment [3], the MIC is 0.1 µg/mL.
`CCOC(=O)NC(=S)Nc1cc(NC(=O)OC(C)C)ccc1NC(=O)CN(C)C` [1-ethoxycarbonyl-3-(2-dimethylaminoacetamido-5-isopropoxycarbonylaminophenyl)-thiourea hydrochloride]: the inhibition in vivo at 1000 mg/kg in experiment [2] (setting [5]) stood at 100%. Moreover, the inhibition in vivo at 250 mg/kg in experiment [2] (setting [6]) was 50%; in experiment [2] (setting [7]), 60%. In experiment [3], the MIC came out at 100 µg/mL.
Consider `CCOC(=O)NC(=S)Nc1cc(NC(=O)OC)ccc1NC(=O)CN(C)C` [1-ethoxycarbonyl-3-(2-dimethylaminoacetamido-5-methoxycarbonylaminophenyl)thiourea hydrochloride], for which the inhibition in vivo at 1000 mg/kg in experiment [2] (setting [5]) came out at 100%.
As to `CCOC(=O)NC(=S)Nc1ccccc1NC(=O)CN(C)C` [1-ethoxycarbonyl-3-(2-dimethylaminoacetamidophenyl)thiourea hydrochloride], the figures for the inhibition in vivo at 1000 mg/kg in experiment [1] (setting [4]) and in experiment [2] (setting [5]) were 85% and 98%, respectively. Further, the inhibition in vivo at 125 mg/kg in experiment [2] (Nippostrongylus brasiliensis, ip, 144 h, rats, Test 2, 125 mg/kg intraperitoneal, read-out: Percentage reduction in N.brasiliensis load) is 85%. The inhibition in vivo at 100 mg/kg in experiment [2] (Nippostrongylus brasiliensis, sc, 144 h, rats, Test 2, 100 mg/kg subcutaneous, read-out: Percentage reduction in N.brasiliensis load) worked out at 76%. The MIC in experiment [3] amounted to 0.1 µg/mL.
With `CCOC(=O)NC(=S)Nc1ccccc1NC(=O)CN1CCOCC1` [1-ethoxycarbonyl-3-(2-morpholinoacetamidophenyl)thiourea hydrochloride], the inhibition in vivo at 1000 mg/kg in experiment [2] (setting [5]) amounted to 99%. Moreover, the MIC in experiment [3] is 0.1 µg/mL.
For `CCOC(=O)NC(=S)Nc1ccccc1NC(=O)CN1CCCCC1` [1-ethoxycarbonyl-3-(2-piperidinoacetamidophenyl)thiourea hydrochloride], the inhibition in vivo at 1000 mg/kg was 85% in experiment [1] (setting [4]) and 98% in experiment [2] (setting [5]). Besides, the MIC in experiment [3] is 1 µg/mL.
For the compound `CCOC(=O)NC(=S)Nc1ccccc1NC(=O)C[N+](C)(C)C` [1-ethoxycarbonyl-3-(2-trimethylammoniumacetamidophenyl)thiourea iodide], the inhibition in vivo at 1000 mg/kg in experiment [2] (setting [5]) amounted to 60%. Besides, in experiment [2] (rats, Test 2, 1000 mg/kg oral), the worm damage result is “worm damage”. In addition, the MIC in experiment [3] was 0.1 µg/mL.
Consider `CCCCc1ccc(NC(=O)CN(C)C)c(NC(=S)NC(=O)OCC)c1` [1-ethoxycarbonyl-3-(5-n-butyl-2-dimethylaminoacetamidophenyl)thiourea hydrochloride], for which the inhibition in vivo at 1000 mg/kg came to 30% in experiment [1] (setting [4]) and 88% in experiment [2] (setting [5]). The MIC in experiment [3] was 0.1 µg/mL.
With `CCOC(=O)NC(=S)Nc1ccccc1NC(=O)CN1C[C@@H](C)O[C@@H](C)C1` [1-ethoxycarbonyl-3-[2-(2,6-cis-dimethylmorpholinoacetamido)phenyl]thioureahydrochloride], the figures for the inhibition in vivo at 250 mg/kg in experiment [2] (setting [6]) and in experiment [2] (setting [7]) were 93% and 95%, respectively. Further, the MIC in experiment [3] was 0.1 µg/mL.
For the compound `CCOC(=O)NC(=S)Nc1ccccc1NC(=O)CN1CCN(C)CC1.Cl` [1-ethoxycarbonyl-3-[2-(4-methylpiperazin-1-ylacetamido)phenyl]thiourea hydrochloride], the worm damage result in experiment [1] (Test 1, 1000 mg/kg oral) was “worm damage”. Also, in experiment [2] (setting [5]), the inhibition in vivo at 1000 mg/kg was determined as 100%. Further, the values for the inhibition in vivo at 250 mg/kg in experiment [2] (setting [6]) and in experiment [2] (setting [7]) were 98% and 93%, respectively. Further, the MIC in experiment [3] is 0.1 µg/mL.
For the compound `CCOC(=O)NC(=S)Nc1ccccc1NC(=O)CN(C)Cc1ccccc1` [1-ethoxycarbonyl-3-[2-(N-benzyl-N-methylaminoacetamido)-phenyl]thiourea hydrochloride], the inhibition in vivo at 1000 mg/kg is 50% in experiment [1] (setting [4]) and 99% in experiment [2] (setting [5]). Also, the worm damage entry is reported as “worm damage” in experiment [1] (Test 1, 1000 mg/kg oral) and “worm damage” in experiment [2] (rats, Test 2, 1000 mg/kg oral). Further, in experiment [3], the MIC turned out to be 0.1 µg/mL.
With `CCOC(=O)Nc1ccc(NC(=S)NC(=O)OC)c(N)c1` [1-methoxycarbonyl-3-(2-amino-4-ethoxycarbonylaminophenyl)thiourea], in experiment [2] (setting [5]), the inhibition in vivo at 1000 mg/kg was 99%. Besides, the MIC in experiment [3] amounted to 10 µg/mL (≈ 32 µM).
Consider `COC(=O)NC(=S)Nc1ccc(C)cc1N` [1-methoxycarbonyl-3-(2-amino-4-methylphenyl)thiourea], for which the inhibition in vivo at 1000 mg/kg in experiment [2] (setting [5]) was found to be 97%. Besides, in experiment [2] (rats, Test 2, 1000 mg/kg oral), the worm damage entry was “worm damage”. In experiment [3], the MIC was found to be 100 µg/mL (≈ 418 µM).
On to `COC(=O)NC(=S)Nc1ccccc1N` [1-methoxycarbonyl-3-(2-aminophenyl)thiourea hydrochloride], for which the inhibition in vivo at 1000 mg/kg in experiment [1] (setting [4]) and in experiment [2] (setting [5]) was 100% each time.
On to `COC(=O)NC(=S)Nc1ccccc1N.O=[N+]([O-])O` [1-methoxycarbonyl-3-(2-aminophenyl)thiourea nitrate], for which the “Percentage reduction in N.brasiliensis load” value in experiment [1] (Test 1, 1000 mg/kg oral) was 99%. For the same compound, the inhibition in vivo at 1000 mg/kg in experiment [2] (Nippostrongylus brasiliensis, po, 144 h, read-out: Percentage reduction in N.brasiliensis load, rats, Test 2, 1000 mg/kg oral) came to 99%.
For `COC(=O)NC(=S)Nc1ccccc1N.Cc1ccc(S(=O)(=O)O)cc1` [1-methoxycarbonyl-3-(2-aminophenyl)thiourea toluene-p-sulphonate], the “Percentage reduction in N.brasiliensis load” value in experiment [1] (Test 1, 1000 mg/kg oral) is 98%; in experiment [2] (rats, Test 2, 1000 mg/kg oral), 99%.
`COC(=O)NC(=S)Nc1ccc(C(C)=O)cc1N` [1-methoxycarbonyl-3-(4-acetyl-2-aminophenyl)thiourea]: the inhibition in vivo at 1000 mg/kg in experiment [2] (setting [5]) turned out to be 73%. Further, the worm damage entry in experiment [2] (rats, Test 2, 1000 mg/kg oral) is “worm damage”.
On to `CCCCc1ccc(NC(=S)NC(=O)OC)c(NC(=O)OCC)c1` [1-methoxycarbonyl-3-(4-n-butyl-2-ethoxycarbonylaminophenyl)thiourea], for which the inhibition in vivo at 500 mg/kg in experiment [1] (Nippostrongylus brasiliensis, po, 48 h, Test 1, 500 mg/kg oral, read-out: Percentage reduction in N.brasiliensis load) was 40%. For the same compound, the worm damage entry in experiment [1] (Test 1, 500 mg/kg oral) was “worm damage”. Besides, the MIC in experiment [3] came to 0.1 µg/mL (≈ 0.283 µM).
Turning to `COC(=O)NC(=S)Nc1ccccc1NC(=O)C=CC(=O)O` [1-methoxycarbonyl-3-[2-(3-carboxyacrylamido)phenyl]thiourea], the inhibition in vivo at 1000 mg/kg in experiment [2] (setting [5]) amounted to 99%. Also, in experiment [3], the MIC amounted to 1 µg/mL (≈ 3.09 µM).
